Consider 5 molecules from patent EP0652220A1, “CEPHALOSPORIN DERIVATIVE” (TAISHO PHARMACEUTICAL CO. LTD, priority 1992, dated 1994).

Structures are written as SMILES. Where only a bound is given, the exact number is not on record here.

Data set [1] concerns Enterococcus faecalis CSJ 1212. Kind of data set: antibacterial test, agar plate dilution method. Type of data set: cell-based. The following applies: inoculum size 10⁶ cells/ml. As to the method:
(§1) The antibacterial test against various bacteria was carried out by the agar plate dilution method (inoculum size : 10⁶ cells/ml), and the results are shown in the following Table 1.

Data set [2] concerns Eschelichia coli NIHJ JC-2. Kind of data set: antibacterial test, agar plate dilution method. Type of data set: cell-based. The conditions noted are these: inoculum size 10⁶ cells/ml. The procedure: as §1
Data set [3] concerns Haemophilus influenzae ATCC 19418. Briefly: antibacterial test, agar plate dilution method. The conditions noted are these: inoculum size 10⁶ cells/ml. The format is cell-based. The procedure:
as §1

Data set [4] relates to Klebsiella pneumoniae IFO 3317. Kind of data set: antibacterial test, agar plate dilution method. The format is cell-based. The following applies: inoculum size 10⁶ cells/ml. The procedure:
as §1

Data set [5] has as its system Morganella morganii IID 602. Briefly: antibacterial test, agar plate dilution method. The format is cell-based. The conditions noted are these: inoculum size 10⁶ cells/ml. The procedure: as §1
The subject of data set [6] is Proteus mirabilis IFO 3849. Briefly: antibacterial test, agar plate dilution method. The following applies: inoculum size 10⁶ cells/ml. The format is cell-based. As to the method: as §1
The subject of data set [7] is Serratia marcescens IID 618. Briefly: antibacterial test, agar plate dilution method. The following applies: inoculum size 10⁶ cells/ml. The format is cell-based. The procedure:
as §1

The subject of data set [8] is Staphylococcus aureus 209P-JP. Kind of data set: antibacterial test, agar plate dilution method. The format is cell-based. The following applies: inoculum size 10⁶ cells/ml. As to the method: as §1
The test system of data set [9] is Staphylococcus epidermidis sp-al-1. Briefly: antibacterial test, agar plate dilution method. Type of data set: cell-based. The conditions noted are these: inoculum size 10⁶ cells/ml. The procedure:
as §1

Data set [10] in a line: mortality after a single intraperitoneal dose in mice. Type of data set: in vivo, male ICR strain mice. The conditions noted are these: single dose 4,000 mg/kg intraperitoneal, 50 ml/kg (saline), 3 mice per group, observation for 14 days. As to the method:
The mortality after a single dose of the test drug was measured using 3 male ICR strain mice (4 weeks old) for each group. Administration route : intraperitoneal Administration volume : 50 ml/kg (saline) Dose : 4,000 mg/kg Observation period : for 14 days after the administration The results are shown in Table 3.

Data set [11] in a line: concentration of the drug in blood after oral administration to mice. The conditions noted are these: 20 mg/kg suspended in 5% gum arabic, bioassay (Bacillus cereus S1101). The format is in vivo, male ICR strain mice. On the set-up: unit not given here. As to the method:
Three male ICR strain mice (4 weeks old) for each group were administered orally with the test drug, and the change of the concentration of the drug in blood was measured with the lapse of time. Dose of drug: 20 mg/kg (suspended in 5% gum arabic) Quantitative method: Bioassay method (test bacteria: Bacillus cereus S1101)

For the molecule `C#CCSC1=C(C(=O)[O-])N2C(=O)[C@@H](NC(=O)/C(=N\O)c3csc(N)n3)[C@H]2SC1.[Na+]` [A, 7β-{2-(2-aminothiazol-4-yl)-2-[(Z)-hydroxyimino]-acetamido}-3-(2-propynyl)thio-3-cephem-4-carboxylic acid sodium salt], the antibacterial activity in [1] stood at 1.56; in [2], 0.20; in data set [3], 0.20; in data set [4] it was 0.05; in data set [5], 0.10; in data set [6], 0.10. Also, the antibacterial activity is 0.78 in data set [7], 0.20 in [8] and 0.20 in data set [9]. Moreover, the Mortality in data set [10] is given as 0/3.

Regarding `C=CC1=C(C(=O)O)N2C(=O)[C@@H](NC(=O)/C(=N\OCC(=O)O)c3csc(N)n3)[C@H]2SC1` [B, Cefixime], the antibacterial activity in data set [1] is on record as above 100; in [2], 0.39; in [3] it was 0.05; in [4], 0.025; in data set [5], 0.20; in [6], 0.025. Also, the antibacterial activity in data set [7] came to 0.20; in [8], 25; in [9], 25.

Regarding `C=CC1=C(C(=O)O)N2C(=O)[C@@H](NC(=O)/C(=N\O)c3csc(N)n3)[C@H]2SC1` [C, Cefnidir], the antibacterial activity in data set [1] worked out at 1.56; in [2] it was 0.39; in data set [3], 0.39; in data set [4], 0.10; in data set [5] it was 0.78; in data set [6], 0.20. Besides, the figures for the antibacterial activity in data set [7], in [8] and in data set [9] were 0.78, 0.39 and 0.39, respectively. Further, the “concentration of the drug in blood” value was 1.8 in [11] (0.25 hour after administration); 2.0 in data set [11] (0.5 hour after administration); 2.5 in data set [11] (1.0 hour after administration); 1.2 in [11] (2.0 hour after administration); 0.1 in data set [11] (4.0 hour after administration).

For `C=CCSC1=C(C(=O)[O-])N2C(=O)[C@@H](NC(=O)/C(=N\O)c3csc(N)n3)[C@H]2SC1.[Na+]` [D, 7β-{2-(2-aminothiazol-4-yl)-2-[(Z)-hydroxyimino]acetamido}-3-allylthio-3-cephem-4-carboxylic acid sodium salt], the antibacterial activity in data set [1] came to 3.13; in data set [2], 0.39; in data set [3] it was 0.39; in data set [4], 0.20; in data set [5], 0.20; in data set [6], 0.20. The antibacterial activity in data set [7] is recorded as 1.56; in data set [8], 0.20; in data set [9], 0.20. In addition, in data set [10], the Mortality is 2/3.

In the case of `C#CCSC1=C(C(=O)OCOC(=O)C(C)(C)C)N2C(=O)[C@@H](NC(=O)/C(=N\O)c3csc(N)n3)[C@H]2SC1` [E, pivaloyloxymethyl 7β-{2-(2-aminothiazol-4-yl)-2-[(Z)-hydroxyimino]acetamido}-3-(2-propynyl)thio-3-cephem-4-carboxylate], the “concentration of the drug in blood” value in data set [11] (0.25 hour after administration) was determined as 14.0; in data set [11] (0.5 hour after administration), 18.4; in data set [11] (1.0 hour after administration), 15.4; in data set [11] (2.0 hour after administration) it was 8.4; in [11] (4.0 hour after administration), 4.0.
